Source: patent publication US11254668B2, “Pyrazolo[1,5-A]pyrazin-4-yl and related derivatives” (Pfizer Inc., priority 2017, dated 2022)
pIC50: −log10 of the molar value. Where two headings read alike, the source gives them in different places.

Columns and labels:
Assay type in all cases: biochemical
JAK2 = JAK2 (Homo sapiens (Human), UniProt O60674); assay: JAK Caliper Enzyme Assay at 1 mM ATP, JAK2
In short: (§1)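 Human recombinant kinase domain + fluorescently labelled synthetic peptide, 1 mM ATP, RT; enzyme level/time set for 20–30% phosphorylation. EDTA stop. LabChip separation, peak-height % conversion, % effect vs plate controls.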

JAK3 = JAK3 (Homo sapiens (Human), UniProt P52333); assay: JAK Caliper Enzyme Assay at 1 mM ATP, JAK3
In short: (§2)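 IC50 (nM) derived from percent conversion of fluorescently labelled peptide, measured by Caliper LabChip mobility-shift separation after EDTA stop. Each JAK family kinase domain (human, recombinant) run at 1 mM ATP and room temperature, conditions set to 20-30% product; DMSO wells define uninhibited baseline.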

JAK1 = JAK1 (Homo sapiens (Human), UniProt P23458); assay: JAK Caliper Enzyme Assay at 1 mM ATP, JAK1
In short: as §2

TYK2 = TYK2 (Homo sapiens (Human), UniProt P29597); assay: JAK Caliper Enzyme Assay at 1 mM ATP, TYK2
In short: as §1

Chain of JAK3 (P52333 822-1111): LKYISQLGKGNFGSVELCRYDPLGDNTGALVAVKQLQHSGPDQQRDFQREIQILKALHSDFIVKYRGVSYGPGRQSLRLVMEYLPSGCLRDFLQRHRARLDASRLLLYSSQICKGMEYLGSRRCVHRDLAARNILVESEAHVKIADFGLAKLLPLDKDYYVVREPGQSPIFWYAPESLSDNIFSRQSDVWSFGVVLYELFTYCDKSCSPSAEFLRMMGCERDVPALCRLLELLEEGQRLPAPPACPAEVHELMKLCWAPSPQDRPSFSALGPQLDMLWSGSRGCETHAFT
Chain of JAK1 (P23458 875-1153): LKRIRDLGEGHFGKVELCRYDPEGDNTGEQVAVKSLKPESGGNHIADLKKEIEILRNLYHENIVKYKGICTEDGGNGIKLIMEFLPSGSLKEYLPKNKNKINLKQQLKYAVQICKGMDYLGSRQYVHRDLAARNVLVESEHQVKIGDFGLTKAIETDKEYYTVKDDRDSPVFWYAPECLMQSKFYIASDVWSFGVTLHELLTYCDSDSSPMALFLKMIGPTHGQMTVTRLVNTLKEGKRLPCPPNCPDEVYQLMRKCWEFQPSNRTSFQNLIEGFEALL
Chain of JAK2 (O60674 849-1124): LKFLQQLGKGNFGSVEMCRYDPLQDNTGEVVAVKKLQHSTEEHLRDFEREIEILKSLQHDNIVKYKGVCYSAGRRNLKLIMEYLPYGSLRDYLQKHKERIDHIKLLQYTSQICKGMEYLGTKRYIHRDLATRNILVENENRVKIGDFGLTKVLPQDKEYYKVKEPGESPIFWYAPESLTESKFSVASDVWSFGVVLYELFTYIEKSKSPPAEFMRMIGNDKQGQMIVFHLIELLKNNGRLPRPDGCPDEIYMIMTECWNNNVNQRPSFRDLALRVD
Chain of TYK2 (P29597 897-1176): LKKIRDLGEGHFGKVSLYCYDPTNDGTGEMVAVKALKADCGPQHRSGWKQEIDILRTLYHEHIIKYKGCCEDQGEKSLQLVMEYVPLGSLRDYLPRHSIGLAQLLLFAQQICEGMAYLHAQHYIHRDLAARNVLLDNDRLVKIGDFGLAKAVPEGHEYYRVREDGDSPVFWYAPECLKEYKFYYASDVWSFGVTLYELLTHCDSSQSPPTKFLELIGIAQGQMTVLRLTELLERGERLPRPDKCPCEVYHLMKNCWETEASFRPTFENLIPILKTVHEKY

N#CC[C@]1(n2ncc(-c3cc(-c4ccnc(N)c4)cc4ncccc34)n2)C[C@H](C#N)C1 [Example 367, trans-3-{4-[7-(2-aminopyridin-4-yl)quinolin-5-yl]-2H-1,2,3-triazol-2-yl}-3-(cyanomethyl)cyclobutanecarbonitrile]
pIC50 (JAK2): 5.89
pIC50 (JAK3): < 5.00
pIC50 (JAK1): 5.55
pIC50 (TYK2): 7.03

CS(=O)(=O)c1ccc(-c2cc(-c3cnn([C@]4(CC#N)C[C@H](C#N)C4)n3)c3cccnc3c2)nc1 [Example 368, cis-3-(cyanomethyl)-3-(4-{7-[5-(methylsulfonyl)pyridin-2-yl]quinolin-5-yl}-2H-1,2,3-triazol-2-yl)cyclobutanecarbonitrile]
pIC50 (JAK2): 7.38
pIC50 (JAK3): 5.14
pIC50 (JAK1): 6.28
pIC50 (TYK2): 7.82

CS(=O)(=O)c1ccc(-c2cc(-c3cnn([C@]4(CC#N)C[C@@H](C#N)C4)n3)c3cccnc3c2)nc1 [Example 369, trans-3-(cyanomethyl)-3-(4-{7-[5-(methylsulfonyl)pyridin-2-yl]quinolin-5-yl}-2H-1,2,3-triazol-2-yl)cyclobutanecarbonitrile]
pIC50 (JAK2): 6.55
pIC50 (JAK3): < 5.00
pIC50 (JAK1): 5.45
pIC50 (TYK2): 7.26

N#CC[C@]1(n2ncc(-c3cc(-c4cccc(C(=O)O)n4)cc4ncccc34)n2)C[C@H](C#N)C1 [Example 370, 6-(5-{2-[cis-3-cyano-1-(cyanomethyl)cyclobutyl]-2H-1,2,3-triazol-4-yl}quinolin-7-yl)pyridine-2-carboxylic acid]
pIC50 (JAK2): 6.46
pIC50 (JAK3): < 5.00
pIC50 (JAK1): 5.64
pIC50 (TYK2): 7.52

N#CC[C@]1(n2ncc(-c3cc(-c4cccc(C(=O)O)n4)cc4ncccc34)n2)C[C@@H](C#N)C1 [Example 371, 6-(5-{2-[trans-3-cyano-1-(cyanomethyl)cyclobutyl]-2H-1,2,3-triazol-4-yl}quinolin-7-yl)pyridine-2-carboxylic acid]
pIC50 (JAK2): 5.79
pIC50 (JAK3): < 5.00
pIC50 (JAK1): 5.03
pIC50 (TYK2): 6.96

CS(=O)(=O)Nc1cccc(-c2cc(-c3cnn(C4(CC#N)CC(C#N)C4)n3)c3cccnc3c2)n1 (stereo not drawn) [Example 372, N-[6-(5-{2-[cis-3-cyano-1-(cyanomethyl)cyclobutyl]-2H-1,2,3-triazol-4-yl}quinolin-7-yl)pyridin-2-yl]methanesulfonamide]
pIC50 (JAK2; JAK Caliper enzyme assay): 7.10
pIC50 (JAK3; JAK Caliper enzyme assay): 5.22
pIC50 (JAK1; JAK Caliper enzyme assay): 6.22
pIC50 (TYK2; JAK Caliper enzyme assay): 7.68

CS(=O)(=O)Nc1cccc(-c2cc(-c3cnn(C4(CC#N)CC(C#N)C4)n3)c3cccnc3c2)n1 (stereo not drawn) [Example 373, N-[6-(5-{2-[trans-3-cyano-1-(cyanomethyl)cyclobutyl]-2H-1,2,3-triazol-4-yl}quinolin-7-yl)pyridin-2-yl]methanesulfonamide]
pIC50 (JAK2; JAK Caliper enzyme assay): 6.39
pIC50 (JAK3; JAK Caliper enzyme assay): < 5.00
pIC50 (JAK1; JAK Caliper enzyme assay): 5.39
pIC50 (TYK2; JAK Caliper enzyme assay): 7.16

CS(=O)(=O)Nc1ccc(-c2cc(-c3cnn(C4(CC#N)CC(C#N)C4)n3)c3cccnc3c2)nc1 (stereo not drawn) [Example 374, N-[6-(5-{2-[cis-3-cyano-1-(cyanomethyl)cyclobutyl]-2H-1,2,3-triazol-4-yl}quinolin-7-yl)pyridin-3-yl]methanesulfonamide]
pIC50 (JAK2; JAK Caliper enzyme assay): 7.60
pIC50 (JAK3; JAK Caliper enzyme assay): 5.54
pIC50 (JAK1; JAK Caliper enzyme assay): 7.28
pIC50 (TYK2; JAK Caliper enzyme assay): 8.05

CS(=O)(=O)Nc1ccc(-c2cc(-c3cnn(C4(CC#N)CC(C#N)C4)n3)c3cccnc3c2)nc1 (stereo not drawn) [Example 375, N-[6-(5-{2-[trans-3-cyano-1-(cyanomethyl)cyclobutyl]-2H-1,2,3-triazol-4-yl}quinolin-7-yl)pyridin-3-yl]methanesulfonamide]
pIC50 (JAK2; JAK Caliper enzyme assay): 6.83
pIC50 (JAK3; JAK Caliper enzyme assay): < 5.00
pIC50 (JAK1; JAK Caliper enzyme assay): 6.34
pIC50 (TYK2; JAK Caliper enzyme assay): 7.52

CC(=O)Nc1cccc(-c2cc(-c3cnn([C@]4(CC#N)C[C@@H](C#N)C4)n3)c3cccnc3c2)n1 [Example 376, N-[6-(5-{2-[trans-3-cyano-1-(cyanomethyl)cyclobutyl]-2H-1,2,3-triazol-4-yl}quinolin-7-yl)pyridin-2-yl]acetamide]
pIC50 (JAK2; JAK Caliper enzyme assay): 6.81
pIC50 (JAK3; JAK Caliper enzyme assay): 5.02
pIC50 (JAK1; JAK Caliper enzyme assay): 6.23
pIC50 (TYK2; JAK Caliper enzyme assay): 7.44

CC(=O)Nc1cccc(-c2cc(-c3cnn(C4(CC#N)CC(C#N)C4)n3)c3cccnc3c2)n1 (stereo not drawn) [Example 377, N-[6-(5-{2-[cis-3-cyano-1-(cyanomethyl)cyclobutyl]-2H-1,2,3-triazol-4-yl}quinolin-7-yl)pyridin-2-yl]acetamide]
pIC50 (JAK2; JAK Caliper enzyme assay): 7.48
pIC50 (JAK3; JAK Caliper enzyme assay): 5.87
pIC50 (JAK1; JAK Caliper enzyme assay): 7.14
pIC50 (TYK2; JAK Caliper enzyme assay): 7.85

Cc1nc(-c2cc(-c3cnn([C@]4(CC#N)C[C@H](C#N)C4)n3)c3cccnc3c2)ccc1CCO [Example 378, cis-3-(cyanomethyl)-3-(4-{7-[5-(2-hydroxyethyl)-6-methylpyridin-2-yl]quinolin-5-yl}-2H-1,2,3-triazol-2-yl)cyclobutanecarbonitrile]
pIC50 (JAK2; JAK Caliper enzyme assay): 7.03
pIC50 (JAK3; JAK Caliper enzyme assay): 5.02
pIC50 (JAK1; JAK Caliper enzyme assay): 6.24
pIC50 (TYK2; JAK Caliper enzyme assay): 7.46

Cc1nc(-c2cc(-c3cnn([C@]4(CC#N)C[C@@H](C#N)C4)n3)c3cccnc3c2)ccc1CCO [Example 379, trans-3-(cyanomethyl)-3-(4-{7-[5-(2-hydroxyethyl)-6-methylpyridin-2-yl]quinolin-5-yl}-2H-1,2,3-triazol-2-yl)cyclobutanecarbonitrile]
pIC50 (JAK2; JAK Caliper enzyme assay): 6.27
pIC50 (JAK3; JAK Caliper enzyme assay): < 5.00
pIC50 (JAK1; JAK Caliper enzyme assay): 5.36
pIC50 (TYK2; JAK Caliper enzyme assay): 6.91

N#CC[C@]1(n2ncc(-c3cc(-c4cc5c(cn4)CCN5)cc4ncccc34)n2)C[C@@H](C#N)C1 [Example 380, cis-3-(cyanomethyl)-3-{4-[7-(2,3-dihydro-1H-pyrrolo[3,2-c]pyridin-6-yl)quinolin-5-yl]-2H-1,2,3-triazol-2-yl}cyclobutanecarbonitrile]
pIC50 (JAK2; JAK Caliper enzyme assay): 6.09
pIC50 (JAK3; JAK Caliper enzyme assay): < 5.00
pIC50 (JAK1; JAK Caliper enzyme assay): 5.03
pIC50 (TYK2; JAK Caliper enzyme assay): 6.71

Cc1nc(-c2cc(-c3cnn([C@]4(CC#N)C[C@H](C#N)C4)n3)c3cccnc3c2)ccc1O [Example 381, cis-3-(cyanomethyl)-3-{4-[7-(5-hydroxy-6-methylpyridin-2-yl)quinolin-5-yl]-2H-1,2,3-triazol-2-yl}cyclobutanecarbonitrile]
pIC50 (JAK2; JAK Caliper enzyme assay): 6.86
pIC50 (JAK3; JAK Caliper enzyme assay): < 5.00
pIC50 (JAK1; JAK Caliper enzyme assay): 6.36
pIC50 (TYK2; JAK Caliper enzyme assay): 7.52

Cc1nc(-c2cc(-c3cnn([C@]4(CC#N)C[C@@H](C#N)C4)n3)c3cccnc3c2)ccc1O [Example 382, trans-3-(cyanomethyl)-3-{4-[7-(5-hydroxy-6-methylpyridin-2-yl)quinolin-5-yl]-2H-1,2,3-triazol-2-yl}cyclobutanecarbonitrile]
pIC50 (JAK2; JAK Caliper enzyme assay): 5.99
pIC50 (JAK3; JAK Caliper enzyme assay): < 5.00
pIC50 (JAK1; JAK Caliper enzyme assay): 5.51
pIC50 (TYK2; JAK Caliper enzyme assay): 6.85

COc1nc(-c2cc(-c3cnn([C@]4(CC#N)C[C@H](C#N)C4)n3)c3cccnc3c2)ccc1N [Example 383, cis-3-{4-[7-(5-amino-6-methoxypyridin-2-yl)quinolin-5-yl]-2H-1,2,3-triazol-2-yl}-3-(cyanomethyl)cyclobutanecarbonitrile]
pIC50 (JAK2; JAK Caliper enzyme assay): 7.46
pIC50 (JAK3; JAK Caliper enzyme assay): 5.37
pIC50 (JAK1; JAK Caliper enzyme assay): 7.23
pIC50 (TYK2; JAK Caliper enzyme assay): 8.15

COc1nc(-c2cc(-c3cnn([C@]4(CC#N)C[C@@H](C#N)C4)n3)c3cccnc3c2)ccc1N [Example 384, trans-3-{4-[7-(5-amino-6-methontpyridin-2-yl)quinolin-5-yl]-2H-1,2,3-triazol-2-yl}-3-(cyanomethyl)cyclobutanecarbonitrile]
pIC50 (JAK2; JAK Caliper enzyme assay): 6.59
pIC50 (JAK3; JAK Caliper enzyme assay): < 5.00
pIC50 (JAK1; JAK Caliper enzyme assay): 6.11
pIC50 (TYK2; JAK Caliper enzyme assay): 7.48

N#CC[C@]1(n2ncc(-c3cc(-c4cc(C(N)=O)c(F)cn4)cc4ncccc34)n2)C[C@H](C#N)C1 [Example 385, 2-(5-{2-[cis-3-cyano-1-(cyanomethyl)cyclobutyl]-2H-1,2,3-triazol-4-yl}quinolin-7-yl)5-fluoropyridine-4-carboxamide]
pIC50 (JAK2; JAK Caliper enzyme assay): 5.17
pIC50 (JAK3; JAK Caliper enzyme assay): < 5.00
pIC50 (JAK1; JAK Caliper enzyme assay): 5.20
pIC50 (TYK2; JAK Caliper enzyme assay): 6.01

N#CC[C@]1(n2ncc(-c3cc(-c4cc(C(N)=O)c(F)cn4)cc4ncccc34)n2)C[C@@H](C#N)C1 [Example 386, 2-(5-{2-[trans-3-cyano-1-(cyanomethyl)cyclobutyl]-2H-1,2,3-triazol-4-yl}quinolin-7-yl)-5-fluoropyridine-4-carboxamide]
pIC50 (JAK2; JAK Caliper enzyme assay): < 5.00
pIC50 (JAK3; JAK Caliper enzyme assay): < 5.00
pIC50 (JAK1; JAK Caliper enzyme assay): < 5.00
pIC50 (TYK2; JAK Caliper enzyme assay): 5.42

N#CC[C@]1(n2ncc(-c3cc(-c4cc(O)ncc4F)cc4ncccc34)n2)C[C@@H](C#N)C1 [Example 387, cis-3-(cyanomethyl)-3-{4-[7-(5-fluoro-2-hydroxpyridin-4-yl)quinolin-5-yl]-2H-1,2,3-triazol-2-yl}cyclobutanecarbonitrile]
pIC50 (JAK2; JAK Caliper enzyme assay): < 5.00
pIC50 (JAK3; JAK Caliper enzyme assay): < 5.00
pIC50 (JAK1; JAK Caliper enzyme assay): < 5.00
pIC50 (TYK2; JAK Caliper enzyme assay): 5.32

Cc1cc(-c2cc(-c3cnn(C4(CC#N)CN(S(C)(=O)=O)C4)n3)c3cccnc3c2)cnc1N [Example 388, [3-{4-[7-(6-amino-5-methylpyridin-3-yl)quinolin-5-yl]-2H-1,2,3-triazol-2-yl}-1-(methylsulfonyl)azetidin-3-yl]acetonitrile]
pIC50 (JAK2; JAK Caliper enzyme assay): 5.16
pIC50 (JAK3; JAK Caliper enzyme assay): < 5.00
pIC50 (JAK1; JAK Caliper enzyme assay): < 5.00
pIC50 (TYK2; JAK Caliper enzyme assay): 5.75

CS(=O)(=O)N1CC(CC#N)(n2ncc(-c3cc(-c4cncnc4)cc4ncccc34)n2)C1 [Example 389, [1-(methylsulfonyl)-3-{4-[7-(pyrimidin-5-yl)quinolin-5-yl]-2H-1,2,3-triazol-2-yl}azetidin-3-yl]acetonitrile]
pIC50 (JAK2; JAK Caliper enzyme assay): < 5.00
pIC50 (JAK3; JAK Caliper enzyme assay): < 5.00
pIC50 (JAK1; JAK Caliper enzyme assay): < 5.00
pIC50 (TYK2; JAK Caliper enzyme assay): 5.30

N#CCC1(n2ncc(-c3cc(-c4ncccn4)cc4ncccc34)n2)CC(C#N)C1 (stereo not drawn) [Example 390, trans-3-(cyanomethyl)-3-{4-[7-(pyrimidin-2-yl)quinolin-5-yl]-2H-1,2,3-triazol-2-yl}cyclobutanecarbonitrile]
pIC50 (JAK2; JAK Caliper enzyme assay): < 5.00
pIC50 (JAK3; JAK Caliper enzyme assay): < 5.00
pIC50 (JAK1; JAK Caliper enzyme assay): < 5.00
pIC50 (TYK2; JAK Caliper enzyme assay): 5.89
